“Also recorded” adds a separate entry of the source.
Key:
Type in all cases: cell-based, human
[1] = tested on: micro-muscle heart tissues; assay: Calcium dose response of twitch force of micro-muscles; details: increasing extracellular calcium concentrations (2 mM, 6 mM shown)
Source text: Representative micro-muscle heart tissues were generated by seeding small numbers of cardiomyocytes into stencil microwells as described herein. Separate micro-muscles were then contacted with different extracellular calcium concentrations.

[2] = tested on: iPS-CM two-dimensional monolayers; assay: Beating of iPS-CM in unpatterned two-dimensional monolayers/cell clusters, drug response
[3] = tested on: heterozygous MYPBC3+/− iPS micro-tissues; assay: Beat-rate response of heterozygous MYBPC3 iPS-CM micro-tissues; details: first daily 10 uM dose
Method: (§1) The beating rate, maximum contraction velocity, and spatial coordination of beating within micro-tissues was assessed visually, and quantified using image processing software was used, such as the custom block-matching optical flow software, described in a publication that is currently under review (Huebsch 2014). Micro-tissue response to drugs, including verapamil and isoproterenol, was tested using an automated inverted microscope (Zeiss).
FIGS. 4G and 4H further illustrate that micro-tissues generated from mutant cells are excellent models of human diseases. Micro-tissues were generated within the dogbone-shaped microwells described herein from three different cell types: wild type MYPBC3^+/+ iPS, heterozygous MYPBC3^+/− iPS, and null MYPBC3^−/− iPS. […] However, upon repeated exposure to isoproterenol, the differences heterozygous and null MYPBC3 tissue responses became less significant (FIG. 4H).

[4] = tested on: iPS-CM micro-tissues harboring the GCaMP6f calcium indicator; assay: Calcium flux (GCaMP6f reporter) in iPS-CM micro-tissues; design: dose or concentration left out as unconfirmed; details: 1 week and 2 week micro-tissues, paced at 1 Hz; isoproterenol
Method: Induced pluripotent stem cells genetically modified to express the GCaMP6f calcium indicator gene product, and then differentiated into cardiomyocytes (iPS-CM). Micro-tissues were made with iPS-CM harboring the GCaMP6f calcium indicator, to allow continuous recording of calcium flux as illustrated in FIG. 8.
FIG. 8D-8E illustrate the functional maturation of iPS-CM-derived micro-tissues (μHT, micro-heart tissues). After 1 or 2 weeks of incubation in the stencil microwells, the micro-tissues were paced at 1 Hz for analysis of inotropy.

[5] = tested on: wild type iPS-CM micro-tissues; assay: Beating (beat rate, contraction velocity) of wild type iPS-CM three-dimensional micro-tissues in stencil microwells, drug response
Method: as §1
Beginning five days after seeding cells into micro-tissue molds, the beating parameters of spontaneously beating (non-paced) iPS-CM micro-tissues were analyzed. […] Despite this difference, micro-tissues maintained in RPMI media with B27 supplement all beat at nearly the same rate (FIG. 4B). Micro-tissues incubated in StemPro 34 media beat with a slightly more variable rate from one tissue to the next, but at a basal rate closer to the physiological levels of 1 Hz for human cells (data not shown).

MYBPC3−/− micro-tissues = assay: Beat-rate response of MYBPC3 null iPS-CM micro-tissues
Method: as §1
To model hypertrophic cardiomyopathy, MYPBC3 was knocked out of wild type iPS.

## [Ca+2] [calcium]
[1]
  twitch force: dramatically increases

## CC(C)NCC(O)c1ccc(O)c(O)c1 (stereo not shown) [isoproterenol]
[2]; 2D cultured iPS-CM monolayers, non-paced, 10 μm isoproterenol
  beat-rate response: erratic/unpredictable responses; also recorded: varies significantly from one test to the next; also recorded: large variance amongst samples
[2]; 2D monolayers, 10 μm isoproterenol
  intensity of beating (inotropic response): did not affect the intensity of beating
[2]; 2D-cultured cells and cell clusters, high doses
  cessation of beating at high doses: stopped beating
[3]
  beating frequency in response to isoproterenol: less than the wild type MYPBC3 tissues but greater than the null MYPBC3 tissues
[4]
  calcium flux response: responded to isoproterenol
[5]; 3D micro-tissues, wild type iPS-CM, non-paced, 10 μm isoproterenol
  beat-rate response: highly reproducible; also recorded: robust increase in beat-rate response
[5]; 3D micro-tissues, 10 μm isoproterenol
  intensity of beating, measured via the maximum contraction velocity (inotropic response): exhibit an inotropic response
[5]; 3D-cultured micro-tissues within stencil wells, high doses
  cessation of beating at high doses: no such effects were observed
[5]; wild type MYPBC3+/+ micro-tissues, first daily 10 uM dose
  beating frequency in response to isoproterenol: greatest increase in beating frequency
MYBPC3−/− micro-tissues; null MYPBC3−/− micro-tissues, first daily 10 uM dose
  beating frequency in response to isoproterenol: returned to a lower beating frequency significantly faster
MYBPC3−/− micro-tissues; short-term (30 minutes) and chronic (5 days of daily dosing) exposure, 10 μm isoproterenol, compared with wild type
  beat-rate (chronotropic response): blunted decrease in beat-rate

## COc1ccc(CCN(C)CCCC(C#N)(c2ccc(OC)c(OC)c2)C(C)C)cc1OC (stereo not shown) [verapamil]
[5]; stencil micro-tissues compared to the same cells in non-patterned 2D monolayers, 30 minutes per dose
  IC50 value (beating): higher IC50 value
